Measurements: patent US20240228555A9, “ANTIMICROBIAL PEPTIDOMIMETICS” (Basilea Pharmaceutica International AG, Allschwil, priority 2020, published 2024)
Where a SMILES comes first, the peptide text is derived from it.

Columns and labels:
[1] = test system: human red blood cells (hRBC); format: cell-based; conditions: red cells of human, 1 h, 0.2 g/L
Summary of the method: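 PBS-washed human erythrocytes (20% v/v) were incubated with compounds at 200 μg/mL for 1 h at 37° C with shaking. Supernatant OD540 was read after 8-fold dilution; hemolysis % = OD540 peptide / OD540 of the 100% lysis control (2.5% Triton X-100 in H2O) ×100, with PBS as 0%.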

[2] = test system: Escherichia coli MCR-1 Af 45; conditions: Mueller-Hinton broth II, no visible growth after 18-20 hours at 35° C.
Summary of the method: (§1)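 Activity is measured against peptides serially diluted two-fold in water with 0.002% final Polysorbate 80. The cells are in cation-adjusted MHII broth at roughly 5×10^5 CFU/mL, prepared from a 0.5 McFarland suspension in 0.85% NaCl.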

[3] = test system: Escherichia coli ATCC 25922; conditions: ATCC 25922
Summary of the method: as §1

[4] = test system: Klebsiella pneumoniae SSI3010; conditions: SSI3010
Summary of the method: as §1

Structure (SMILES): CC[C@H](C)[C@H](NC(=O)[C@@H](NC(=O)[C@@H]1C[C@@H](O)CN1C(=O)[C@@H](N)C(C)C)[C@@H](C)CC)C(=O)N[C@@H](Cc1ccc(O)cc1)C(=O)N[C@@H]1C(=O)N[C@@H](CC(N)=O)C(=O)N[C@@H](CCCNC(=N)N)C(=O)N[C@@H](CCN)C(=O)N[C@@H](CO)C(=O)N[C@H](CCN)C(=O)N[C@@H](CCCCN)C(=O)N[C@H](C(=O)N[C@@H](CCN)C(=O)N[C@@H](CCN)C(=O)N[C@@H](Cc2ccc(O)cc2)C(=O)O)CSSC1(C)C [Example 76, Val-Hyp-Ile-Ile-Tyr-Pen-Asn-Arg-Dab-Ser-^DDab-Lys-Cys-Dab-Dab-Tyr] (HELM PEPTIDE1{V.[Hyp].I.I.Y.[Pen].N.R.[Dab].S.[NCC[C@@H](N[*:1])C(=O)[*:2]].K.C.[Dab].[Dab].Y}$PEPTIDE1,PEPTIDE1,6:R3-13:R3$$$V2.0)
- Hemolysis at 0.2 g/L [1]: <1%
- Escherichia coli MCR-1 Af 45 MIC [2]: 0.0625 µg/mL
- Escherichia coli ATCC 25922 MIC [3]: 0.0625 µg/mL
- Klebsiella pneumoniae SSI3010 MIC [4]: 0.25 µg/mL

Structure (SMILES): CC[C@H](C)[C@H](NC(=O)[C@@H](NC(=O)[C@@H]1C[C@@H](O)CN1C(=O)[C@@H](N)C(C)C)[C@@H](C)CC)C(=O)N[C@@H](Cc1ccc(O)cc1)C(=O)N[C@@H]1C(=O)N[C@@H](CC(N)=O)C(=O)N[C@@H](CCCNC(=N)N)C(=O)N[C@@H](CCCNC(N)=O)C(=O)N[C@@H]([C@@H](C)O)C(=O)N[C@H](CCN)C(=O)N[C@@H](CCCCN)C(=O)N[C@H](C(=O)N[C@@H](CCN)C(=O)N[C@@H](CCCNC(=N)N)C(=O)N[C@@H](Cc2ccc(O)cc2)C(=O)O)CSSC1(C)C [Example 124, Val-Hyp-Ile-Ile-Tyr-Pen-Asn-Arg-Cit-Thr-^DDab-Lys-Cys-Dab-Arg-Tyr] (HELM PEPTIDE1{V.[Hyp].I.I.Y.[Pen].N.R.[Cit].T.[NCC[C@@H](N[*:1])C(=O)[*:2]].K.C.[Dab].R.Y}$PEPTIDE1,PEPTIDE1,6:R3-13:R3$$$V2.0)
- Hemolysis at 0.2 g/L [1]: <1%
- Escherichia coli MCR-1 Af 45 MIC [2]: 0.25 µg/mL
- Escherichia coli ATCC 25922 MIC [3]: 0.25 µg/mL
- Klebsiella pneumoniae SSI3010 MIC [4]: 0.5 µg/mL

Structure (SMILES): CC[C@H](C)[C@H](NC(=O)[C@@H](NC(=O)[C@@H]1C[C@@H](O)CN1C(=O)[C@@H](N)C(C)(C)C)[C@@H](C)CC)C(=O)N[C@@H](Cc1ccc(O)cc1)C(=O)N[C@@H]1C(=O)N[C@@H](CC(N)=O)C(=O)N[C@@H](CCCNC(=N)N)C(=O)N[C@@H](CCN)C(=O)N[C@@H]([C@@H](C)O)C(=O)N[C@H](CCN)C(=O)N[C@@H](CCCCN)C(=O)N[C@H](C(=O)N[C@@H](CCN)C(=O)N[C@@H](CCCNC(=N)N)C(=O)N[C@@H](Cc2ccc(O)cc2)C(=O)O)CSSC1(C)C [Example 114, tBuGly-Hyp-Ile-Ile-Tyr-Pen-Asn-Arg-Dab-Thr-^DDab-Lys-Cys-Dab-Arg-Tyr] (HELM PEPTIDE1{[CC(C)(C)[C@H](N)C(=O)[*:2]].[Hyp].I.I.Y.[Pen].N.R.[Dab].T.[NCC[C@@H](N[*:1])C(=O)[*:2]].K.C.[Dab].R.Y}$PEPTIDE1,PEPTIDE1,6:R3-13:R3$$$V2.0)
- Hemolysis at 0.2 g/L [1]: <1%
- Escherichia coli MCR-1 Af 45 MIC [2]: 0.125 µg/mL
- Escherichia coli ATCC 25922 MIC [3]: 0.125 µg/mL
- Klebsiella pneumoniae SSI3010 MIC [4]: 0.5 µg/mL
